Series [1] deals with Hepatotoxicity.
Series [2] relates to Hepatotoxicity. The source holds these as a separate data set.
The test system of series [3] is Hepatotoxicity. This is another data set of the same source.
Series [4] relates to Hepatotoxicity. The source holds these as a separate data set.
The subject of series [5] is Hepatotoxicity. The source holds these as a separate data set.
For series [6], the system named is Hepatotoxicity. The source holds these as a separate data set.
The test system of series [7] is Hepatotoxicity. The source holds these as a separate data set.
Series [8] deals with Hepatotoxicity. This is another data set of the same source.
The test system of series [9] is Hepatotoxicity. The source holds these as a separate data set.
Series [10] concerns Hepatotoxicity. The source holds these as a separate data set.
Series [11] has as its system Hepatotoxicity. This is another data set of the same source.
Series [12] deals with Hepatotoxicity. The source holds these as a separate data set.
Series [13] has as its system Hepatotoxicity. This is another data set of the same source.
Series [14] deals with Hepatotoxicity. This is another data set of the same source.
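For HepSE Combined Scores in this document: combined hepatic side effect score as listed in the training data of the Drug Induced Liver Injury Prediction System (DILIps).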
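For HepSE bilirubinemia in this document: bilirubinemia hepatic side effect score drawn from the DILIps training data, a prediction system for drug-induced liver injury; call rule not given here.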
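For HepSE cholecystitis in this document: Cholecystitis-related hepatic side effect score drawn from the DILIps (drug-induced liver injury prediction) training data set; call rule not given here.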
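For HepSE cholelithiasis in this document: hepatic side effect score for cholelithiasis, drawn from the DILIps training data for predicting drug-induced liver injury; call rule not given here.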
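For HepSE cirrhosis in this document: cirrhosis hepatic side effect score taken from the DILIps (drug-induced liver injury prediction) training set; call rule not given here.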
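For HepSE elevated liver function tests in this document: hepatic side effect score for raised liver function tests, as recorded in the DILIps training set used for predicting drug-induced liver injury.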
For HepSE hepatic failure in this document: call rule not given here.
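For HepSE hepatic necrosis in this document: score of hepatic side effects for hepatic necrosis, drawn from the training data of DILIps, a prediction system for drug-induced liver injury; call rule not given here.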
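For HepSE hepatitis in this document: Hepatitis-related hepatic side effect score taken from the training data of DILIps, a prediction system for drug-induced liver injury; call rule not given here.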
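For HepSE hepatomegaly in this document: hepatic side effect score for hepatomegaly, taken from the training set of the DILIps drug-induced liver injury prediction system; call rule not given here.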
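For HepSE jaundice in this document: Jaundice-related hepatic side-effect score drawn from the training data of the DILIps (drug-induced liver injury prediction system); call rule not given here.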
For HepSE liver disease in this document: call rule not given here.
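For HepSE liver fatty in this document: hepatic side effect score for fatty liver, taken from the DILIps training set for predicting drug-induced liver injury; call rule not given here.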
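For HepSE liver function tests abnormal in this document: hepatic side effect score taken from the DILIps (drug-induced liver injury prediction system) training data, here covering abnormal liver function test findings.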

In the series on Hepatotoxicity [1], `O=C1[C@H](CC[C@H](O)c2ccc(F)cc2)[C@@H](c2ccc(O)cc2)N1c1ccc(F)cc1` [EZETIMIBE] yielded a HepSE_hepatic failure of 0. In the series with Hepatotoxicity [2], this compound gave a HepSE_cirrhosis of 0. Also, the HepSE_liver fatty with Hepatotoxicity [3] is given as 0. The compound further showed a HepSE_hepatitis with Hepatotoxicity [4] of 1. In the series on Hepatotoxicity [5], the HepSE_hepatic necrosis is 0. In the series on Hepatotoxicity [6], this compound showed a HepSE_liver disease of 0. The compound also displayed a HepSE_bilirubinemia with Hepatotoxicity [7] of 0. Further, the “HepSE_elevated liver function tests” value with Hepatotoxicity [8] is recorded as 0. For the same compound, the “HepSE_liver function tests abnormal” value in the series with Hepatotoxicity [9] stood at 0. Also, the HepSE_cholelithiasis in the series with Hepatotoxicity [10] amounted to 1. Moreover, the HepSE_cholecystitis in the series on Hepatotoxicity [11] stood at 1. For the same compound, in the series on Hepatotoxicity [12], the “HepSE_Combined Scores” value is 3. In addition, the HepSE_jaundice with Hepatotoxicity [13] turned out to be 0. The HepSE_hepatomegaly with Hepatotoxicity [14] is recorded as 0.
`Clc1ccccc1CN1CCc2sccc2C1` [TICLOPIDINE] came in with a HepSE_hepatic failure in the series on Hepatotoxicity [1] (Liver) of 1. In the series on Hepatotoxicity [2] (Liver), this compound showed a HepSE_cirrhosis of 0. Also, the HepSE_liver fatty in the series on Hepatotoxicity [3] (Liver) is reported as 0. This compound also registered a HepSE_hepatitis with Hepatotoxicity [4] (Liver) of 1. This compound also registered a HepSE_hepatic necrosis in the series on Hepatotoxicity [5] (Liver) of 1. This compound yielded a HepSE_liver disease with Hepatotoxicity [6] (Liver) of 0. The HepSE_bilirubinemia with Hepatotoxicity [7] (Liver) is recorded as 0. Also, in the series with Hepatotoxicity [8] (Liver), the “HepSE_elevated liver function tests” value is on record as 0. Further, in the series with Hepatotoxicity [9] (Liver), the “HepSE_liver function tests abnormal” value came to 0. The same compound had a HepSE_cholelithiasis in the series on Hepatotoxicity [10] (Liver) of 0. In the series with Hepatotoxicity [11] (Liver), this compound returned a HepSE_cholecystitis of 0. In addition, in the series with Hepatotoxicity [12] (Liver), the “HepSE_Combined Scores” value stood at 4. Also, in the series on Hepatotoxicity [13] (Liver), the HepSE_jaundice is recorded as 1. For the same compound, the HepSE_hepatomegaly with Hepatotoxicity [14] (Liver) was found to be 0.
Turning to `C#CCN[C@@H]1CCc2ccccc21` [RASAGILINE], the HepSE_hepatic failure in the series on Hepatotoxicity [1] (Liver) is recorded as 0. This compound displayed a HepSE_cirrhosis in the series with Hepatotoxicity [2] (Liver) of 0. The same compound returned a HepSE_liver fatty with Hepatotoxicity [3] (Liver) of 0. In the series with Hepatotoxicity [4] (Liver), this compound came in with a HepSE_hepatitis of 0. In the series on Hepatotoxicity [5] (Liver), this compound showed a HepSE_hepatic necrosis of 0. Also, the HepSE_liver disease in the series on Hepatotoxicity [6] (Liver) is given as 0. The compound also came in with a HepSE_bilirubinemia with Hepatotoxicity [7] (Liver) of 0. In addition, in the series on Hepatotoxicity [8] (Liver), the “HepSE_elevated liver function tests” value is reported as 0. Moreover, the “HepSE_liver function tests abnormal” value in the series with Hepatotoxicity [9] (Liver) was 1. In the series with Hepatotoxicity [10] (Liver), this compound showed a HepSE_cholelithiasis of 0. Besides, in the series with Hepatotoxicity [11] (Liver), the HepSE_cholecystitis is reported as 0. The “HepSE_Combined Scores” value in the series with Hepatotoxicity [12] (Liver) is listed as 2. Besides, the HepSE_jaundice in the series on Hepatotoxicity [13] (Liver) was 1. In the series with Hepatotoxicity [14] (Liver), this compound yielded a HepSE_hepatomegaly of 0.
As for `CC(N)Cc1ccccc1` (stereo not given) [AMPHETAMINE], the HepSE_hepatic failure in the series with Hepatotoxicity [1] was 0. In the series with Hepatotoxicity [2], the HepSE_cirrhosis is 0. For the same compound, in the series with Hepatotoxicity [3], the HepSE_liver fatty is reported as 0. Moreover, in the series with Hepatotoxicity [4], the HepSE_hepatitis came to 0. In the series on Hepatotoxicity [5], this compound displayed a HepSE_hepatic necrosis of 0. Moreover, the HepSE_liver disease with Hepatotoxicity [6] is given as 0. The compound also came in with a HepSE_bilirubinemia in the series on Hepatotoxicity [7] of 0. Moreover, the “HepSE_elevated liver function tests” value in the series on Hepatotoxicity [8] is reported as 0. Moreover, the “HepSE_liver function tests abnormal” value in the series on Hepatotoxicity [9] came to 0. The same compound gave a HepSE_cholelithiasis with Hepatotoxicity [10] of 0. The same compound yielded a HepSE_cholecystitis in the series on Hepatotoxicity [11] of 0. The “HepSE_Combined Scores” value with Hepatotoxicity [12] was found to be 0. The compound also registered a HepSE_jaundice with Hepatotoxicity [13] of 0. The compound further displayed a HepSE_hepatomegaly in the series on Hepatotoxicity [14] of 0.
In the series with Hepatotoxicity [1] (Liver), `CNCCCC1c2ccccc2C=Cc2ccccc21` [PROTRIPTYLINE] displayed a HepSE_hepatic failure of 0. Besides, the HepSE_cirrhosis with Hepatotoxicity [2] (Liver) worked out at 0. The compound also came in with a HepSE_liver fatty in the series with Hepatotoxicity [3] (Liver) of 0. The HepSE_hepatitis in the series with Hepatotoxicity [4] (Liver) was determined as 0. This compound yielded a HepSE_hepatic necrosis in the series with Hepatotoxicity [5] (Liver) of 0. In the series on Hepatotoxicity [6] (Liver), this compound gave a HepSE_liver disease of 0. Besides, the HepSE_bilirubinemia with Hepatotoxicity [7] (Liver) is 0. In addition, the “HepSE_elevated liver function tests” value with Hepatotoxicity [8] (Liver) came to 0. For the same compound, the “HepSE_liver function tests abnormal” value with Hepatotoxicity [9] (Liver) was found to be 0. Further, in the series on Hepatotoxicity [10] (Liver), the HepSE_cholelithiasis was found to be 0. For the same compound, the HepSE_cholecystitis in the series with Hepatotoxicity [11] (Liver) is given as 0. In addition, in the series on Hepatotoxicity [12] (Liver), the “HepSE_Combined Scores” value is listed as 1. The same compound gave a HepSE_jaundice in the series on Hepatotoxicity [13] (Liver) of 1. Further, in the series with Hepatotoxicity [14] (Liver), the HepSE_hepatomegaly is listed as 0.
`Cc1cn([C@H]2C=C[C@@H](CO)O2)c(=O)[nH]c1=O` [STAVUDINE]: in the series with Hepatotoxicity [1], the HepSE_hepatic failure is 1. In the series with Hepatotoxicity [2], the HepSE_cirrhosis worked out at 0. Moreover, in the series on Hepatotoxicity [3], the HepSE_liver fatty is listed as 1. In addition, the HepSE_hepatitis in the series with Hepatotoxicity [4] was found to be 1. In addition, in the series on Hepatotoxicity [5], the HepSE_hepatic necrosis came to 0. The HepSE_liver disease in the series with Hepatotoxicity [6] is 1. This compound also came in with a HepSE_bilirubinemia in the series with Hepatotoxicity [7] of 1. For the same compound, the “HepSE_elevated liver function tests” value in the series with Hepatotoxicity [8] was 0. For the same compound, the “HepSE_liver function tests abnormal” value with Hepatotoxicity [9] is reported as 0. In the series with Hepatotoxicity [10], this compound gave a HepSE_cholelithiasis of 0. Moreover, in the series on Hepatotoxicity [11], the HepSE_cholecystitis was found to be 0. Further, the “HepSE_Combined Scores” value with Hepatotoxicity [12] is recorded as 5. Further, the HepSE_jaundice in the series on Hepatotoxicity [13] was determined as 0. The compound further came in with a HepSE_hepatomegaly in the series on Hepatotoxicity [14] of 0.
In the case of `CN(C)CCc1c[nH]c2ccc(CS(=O)(=O)N3CCCC3)cc12` [ALMOTRIPTAN], the HepSE_hepatic failure with Hepatotoxicity [1] stood at 0. The compound also had a HepSE_cirrhosis in the series with Hepatotoxicity [2] of 0. The same compound registered a HepSE_liver fatty in the series on Hepatotoxicity [3] of 0. Also, in the series with Hepatotoxicity [4], the HepSE_hepatitis was determined as 0. Besides, the HepSE_hepatic necrosis with Hepatotoxicity [5] is 0. Also, the HepSE_liver disease in the series on Hepatotoxicity [6] worked out at 0. The compound further gave a HepSE_bilirubinemia in the series on Hepatotoxicity [7] of 0. Further, in the series with Hepatotoxicity [8], the “HepSE_elevated liver function tests” value was 0. The “HepSE_liver function tests abnormal” value in the series with Hepatotoxicity [9] is given as 0. Moreover, in the series with Hepatotoxicity [10], the HepSE_cholelithiasis is 0. This compound also registered a HepSE_cholecystitis in the series with Hepatotoxicity [11] of 0. Besides, the “HepSE_Combined Scores” value with Hepatotoxicity [12] is listed as 0. Besides, the HepSE_jaundice in the series with Hepatotoxicity [13] was determined as 0. In the series with Hepatotoxicity [14], this compound registered a HepSE_hepatomegaly of 0.
Regarding `COC(=O)CCc1ccc(OCC(O)CNC(C)C)cc1` (stereo not given) [ESMOLOL], the HepSE_hepatic failure in the series on Hepatotoxicity [1] is recorded as 0. This compound registered a HepSE_cirrhosis in the series on Hepatotoxicity [2] of 0. The HepSE_liver fatty in the series with Hepatotoxicity [3] worked out at 0. In the series on Hepatotoxicity [4], this compound displayed a HepSE_hepatitis of 0. The compound also displayed a HepSE_hepatic necrosis in the series with Hepatotoxicity [5] of 0. In addition, the HepSE_liver disease in the series on Hepatotoxicity [6] is recorded as 0. The compound also came in with a HepSE_bilirubinemia with Hepatotoxicity [7] of 0. Further, in the series on Hepatotoxicity [8], the “HepSE_elevated liver function tests” value amounted to 0. Also, the “HepSE_liver function tests abnormal” value in the series on Hepatotoxicity [9] is given as 0. In addition, the HepSE_cholelithiasis in the series with Hepatotoxicity [10] amounted to 0. This compound displayed a HepSE_cholecystitis in the series with Hepatotoxicity [11] of 0. Moreover, the “HepSE_Combined Scores” value in the series with Hepatotoxicity [12] turned out to be 0. In the series on Hepatotoxicity [13], this compound had a HepSE_jaundice of 0. The compound also displayed a HepSE_hepatomegaly in the series with Hepatotoxicity [14] of 0.
In turn, `CCCNC(=O)NS(=O)(=O)c1ccc(Cl)cc1` [CHLORPROPAMIDE] showed a HepSE_hepatic failure in the series with Hepatotoxicity [1] of 0. In the series with Hepatotoxicity [2], this compound gave a HepSE_cirrhosis of 0. In the series with Hepatotoxicity [3], this compound returned a HepSE_liver fatty of 0. In addition, the HepSE_hepatitis with Hepatotoxicity [4] turned out to be 0. The compound further registered a HepSE_hepatic necrosis in the series on Hepatotoxicity [5] of 0. Also, the HepSE_liver disease in the series on Hepatotoxicity [6] is listed as 0. The same compound registered a HepSE_bilirubinemia in the series on Hepatotoxicity [7] of 0. Moreover, the “HepSE_elevated liver function tests” value in the series on Hepatotoxicity [8] is 0. For the same compound, the “HepSE_liver function tests abnormal” value in the series on Hepatotoxicity [9] is given as 0. Also, the HepSE_cholelithiasis with Hepatotoxicity [10] was determined as 0. Besides, in the series on Hepatotoxicity [11], the HepSE_cholecystitis stood at 0. In the series on Hepatotoxicity [12], the “HepSE_Combined Scores” value turned out to be 1. In the series on Hepatotoxicity [13], this compound yielded a HepSE_jaundice of 1. Further, in the series with Hepatotoxicity [14], the HepSE_hepatomegaly is given as 0.
Turning to `CN(C)[C@@H]1C(O)=C(C(N)=O)C(=O)[C@@]2(O)C(O)=C3C(=O)c4c(O)cccc4[C@@](C)(O)[C@H]3[C@H](O)[C@@H]12` [OXYTETRACYCLINE], the HepSE_hepatic failure with Hepatotoxicity [1] stood at 0. Also, the HepSE_cirrhosis with Hepatotoxicity [2] is listed as 0. In the series on Hepatotoxicity [3], the HepSE_liver fatty was 0. The compound further registered a HepSE_hepatitis in the series with Hepatotoxicity [4] of 0. The compound also had a HepSE_hepatic necrosis with Hepatotoxicity [5] of 0. Further, the HepSE_liver disease with Hepatotoxicity [6] is recorded as 0. The same compound gave a HepSE_bilirubinemia in the series on Hepatotoxicity [7] of 0. For the same compound, the “HepSE_elevated liver function tests” value with Hepatotoxicity [8] was 0. Besides, the “HepSE_liver function tests abnormal” value in the series with Hepatotoxicity [9] is on record as 0. The HepSE_cholelithiasis in the series with Hepatotoxicity [10] is given as 0. Also, the HepSE_cholecystitis in the series with Hepatotoxicity [11] was found to be 0. For the same compound, the “HepSE_Combined Scores” value in the series with Hepatotoxicity [12] is reported as 0. This compound showed a HepSE_jaundice with Hepatotoxicity [13] of 0. The compound further had a HepSE_hepatomegaly with Hepatotoxicity [14] of 0.

The record behind these values is ChEMBL document CHEMBL1909294, “Translating clinical findings into knowledge in drug safety evaluation--drug induced liver injury prediction system (DILIps)” (PLoS Comput Biol, 2011).
